In ChEMBL document CHEMBL2434905, “2-Amino-6-chloro-3,4-dihydroquinazoline: A novel 5-HT3 receptor antagonist with antidepressant character” (Bioorg Med Chem Lett, 2013) one finds Ki data, which are given here for one compound.

One experiment has as its target Translocator protein (Rattus norvegicus, UniProt P16257). In words: Displacement of [3H]PK11195 from PBR in rat brain after 90 mins by scintillation counting analysis. Type of experiment: tissue-based. A general note: In a radioligand displacement assay an active substance lowers the binding of a labelled ligand.
The target in another experiment is D(1A) dopamine receptor (Homo sapiens, UniProt P21728). In words: Displacement of [3H]SCH23390 from human recombinant dopamine D1 receptor expressed in HEK cells after 90 mins by scintillation counting analysis. The format is cell-based, HEK293.
The next experiment has as its target Histamine H3 receptor (Homo sapiens, UniProt Q9Y5N1). The experiment is described as follows: Displacement of [3H]-alpha-methylhistamine from human recombinant histamine H3 receptor expressed in HEK cells after 90 mins by scintillation counting analysis. Type of experiment: cell-based, HEK293.
Experiment [1] concerns the target Beta-3 adrenergic receptor (Homo sapiens, UniProt P13945). In words: Binding affinity to human recombinant beta3-adrenoceptor expressed in HEK cells after 90 mins by radioligand displacement assay. The format is cell-based, HEK293.
Experiment [2] deals with 5-hydroxytryptamine receptor 5A (Homo sapiens, UniProt P47898). The experiment is described as follows: Displacement of [3H]LSD from human recombinant 5-HT5A receptor expressed in CHO cells after 90 mins by scintillation counting analysis. Type of experiment: cell-based.
Chain of 5-hydroxytryptamine receptor 5A (P47898 whole entry): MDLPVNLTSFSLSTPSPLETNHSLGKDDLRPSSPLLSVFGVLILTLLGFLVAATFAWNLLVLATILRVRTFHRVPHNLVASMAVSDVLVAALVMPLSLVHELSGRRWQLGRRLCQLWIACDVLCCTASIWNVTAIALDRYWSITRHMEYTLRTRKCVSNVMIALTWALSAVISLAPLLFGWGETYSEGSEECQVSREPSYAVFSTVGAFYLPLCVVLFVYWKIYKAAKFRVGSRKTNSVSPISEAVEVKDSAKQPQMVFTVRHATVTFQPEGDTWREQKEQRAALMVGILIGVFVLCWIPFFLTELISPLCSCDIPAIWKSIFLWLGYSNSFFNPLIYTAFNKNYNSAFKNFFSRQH
The target of experiment [3] is 5-hydroxytryptamine receptor 7 (Homo sapiens, UniProt P34969). In words: Displacement of [3H]LSD from human recombinant 5-HT7 receptor expressed in HEK cells after 90 mins by scintillation counting analysis. Type of experiment: cell-based, HEK293.
Chain of 5-hydroxytryptamine receptor 7 (P34969 whole entry): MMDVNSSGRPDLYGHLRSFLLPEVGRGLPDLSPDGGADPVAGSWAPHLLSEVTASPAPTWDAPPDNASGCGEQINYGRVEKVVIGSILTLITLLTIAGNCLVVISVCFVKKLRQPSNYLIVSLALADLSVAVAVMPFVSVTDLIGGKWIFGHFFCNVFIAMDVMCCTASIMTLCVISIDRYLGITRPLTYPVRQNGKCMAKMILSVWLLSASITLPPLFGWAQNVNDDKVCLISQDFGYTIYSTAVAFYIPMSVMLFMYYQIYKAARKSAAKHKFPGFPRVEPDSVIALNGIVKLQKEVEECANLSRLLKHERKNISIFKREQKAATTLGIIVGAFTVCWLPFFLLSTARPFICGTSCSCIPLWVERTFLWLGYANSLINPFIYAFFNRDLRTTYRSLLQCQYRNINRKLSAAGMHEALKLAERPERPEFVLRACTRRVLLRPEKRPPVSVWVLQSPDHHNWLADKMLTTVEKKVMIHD
Experiment [4] concerns the target Delta-type opioid receptor (Homo sapiens, UniProt P41143). The experiment is described as follows: Displacement of [3H]DADLE from human recombinant delta opioid receptor expressed in HEK cells after 90 mins by scintillation counting analysis. Type of experiment: cell-based, HEK293.
In experiment [5] the target is Sodium-dependent dopamine transporter (Homo sapiens, UniProt Q01959). In words: Displacement of [3H]WIN35428 from human recombinant sodium-dependent dopamine transporter expressed in HEK cells after 90 mins by scintillation counting analysis. Type of experiment: cell-based, HEK293.
Chain of Sodium-dependent dopamine transporter (Q01959 whole entry): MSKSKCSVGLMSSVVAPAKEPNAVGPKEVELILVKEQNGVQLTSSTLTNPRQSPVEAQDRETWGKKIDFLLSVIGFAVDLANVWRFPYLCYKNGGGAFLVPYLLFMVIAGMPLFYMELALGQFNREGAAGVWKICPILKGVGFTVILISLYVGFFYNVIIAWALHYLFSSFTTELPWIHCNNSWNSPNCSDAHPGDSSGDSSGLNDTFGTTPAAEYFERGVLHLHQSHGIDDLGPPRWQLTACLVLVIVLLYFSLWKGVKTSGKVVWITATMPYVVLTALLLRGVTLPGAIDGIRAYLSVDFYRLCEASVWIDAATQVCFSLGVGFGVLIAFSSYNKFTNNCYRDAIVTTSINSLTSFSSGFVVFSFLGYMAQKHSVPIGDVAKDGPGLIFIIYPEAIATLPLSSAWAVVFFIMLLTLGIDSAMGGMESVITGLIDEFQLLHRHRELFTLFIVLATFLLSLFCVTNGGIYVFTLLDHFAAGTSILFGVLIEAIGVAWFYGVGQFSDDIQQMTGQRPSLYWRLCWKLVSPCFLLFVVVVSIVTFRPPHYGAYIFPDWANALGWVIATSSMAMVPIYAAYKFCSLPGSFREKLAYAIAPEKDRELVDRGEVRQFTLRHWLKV
The nature of experiment [6]: Displacement of [3H]Flunitrazepam from BZP receptor in rat brain after 90 mins by scintillation counting analysis. The format is tissue-based.
Experiment [7] has as its target 5-hydroxytryptamine receptor 4 (Homo sapiens, UniProt Q13639). The experiment is described as follows: Displacement of [[3H]GR113808 from human recombinant 5-HT4 receptor after 90 mins by scintillation counting analysis.
Experiment [8] has as its target Beta-2 adrenergic receptor (Homo sapiens, UniProt P07550). The experiment is described as follows: Displacement of [3H]CGP12177 from human recombinant beta2-adrenoceptor expressed in HEK cells after 90 mins by scintillation counting analysis. Type of experiment: cell-based, HEK293.
Experiment [9] has as its target 5-hydroxytryptamine receptor 2C (Homo sapiens, UniProt P28335). The experiment is described as follows: Displacement of [3H]Mesulergine from human recombinant 5-HT2C receptor expressed in HEK cells after 90 mins by scintillation counting analysis. Type of experiment: cell-based, HEK293.
Experiment [10] addresses Muscarinic acetylcholine receptor M1 (Homo sapiens, UniProt P11229). The experiment is described as follows: Binding affinity to human recombinant muscarinic M1 receptor expressed in CHO cells after 90 mins by radioligand displacement assay. Type of experiment: cell-based.
For experiment [11], the target named is T1, 5-hydroxytryptamine receptor 3A (Homo sapiens, UniProt P46098).
T1 sequence (P46098 whole entry): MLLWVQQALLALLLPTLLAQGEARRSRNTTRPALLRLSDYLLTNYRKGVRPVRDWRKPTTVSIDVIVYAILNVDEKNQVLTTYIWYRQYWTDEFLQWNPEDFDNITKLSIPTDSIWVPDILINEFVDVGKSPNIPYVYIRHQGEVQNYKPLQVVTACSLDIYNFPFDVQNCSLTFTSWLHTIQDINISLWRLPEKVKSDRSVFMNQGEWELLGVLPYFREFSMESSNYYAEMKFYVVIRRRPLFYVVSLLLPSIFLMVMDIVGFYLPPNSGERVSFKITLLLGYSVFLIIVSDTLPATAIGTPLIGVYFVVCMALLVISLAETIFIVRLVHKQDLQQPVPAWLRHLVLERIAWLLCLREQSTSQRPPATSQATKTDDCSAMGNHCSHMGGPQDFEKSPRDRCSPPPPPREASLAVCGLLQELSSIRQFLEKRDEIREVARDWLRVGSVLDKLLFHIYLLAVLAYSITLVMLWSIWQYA
In words: Displacement of [3H]GR65630 from 5-HT3 receptor (unknown origin) expressed in mouse/rat NG108-15 cells after 30 mins by liquid scintillation counting analysis. The format is cell-based.

The target in the next experiment is D(2) dopamine receptor (Homo sapiens, UniProt P14416). In words: Displacement of [[3H]N-methylspiperone from human recombinant dopamine D2 receptor expressed in human fibroblasts after 90 mins by scintillation counting analysis.
Chain of D(2) dopamine receptor (P14416 whole entry): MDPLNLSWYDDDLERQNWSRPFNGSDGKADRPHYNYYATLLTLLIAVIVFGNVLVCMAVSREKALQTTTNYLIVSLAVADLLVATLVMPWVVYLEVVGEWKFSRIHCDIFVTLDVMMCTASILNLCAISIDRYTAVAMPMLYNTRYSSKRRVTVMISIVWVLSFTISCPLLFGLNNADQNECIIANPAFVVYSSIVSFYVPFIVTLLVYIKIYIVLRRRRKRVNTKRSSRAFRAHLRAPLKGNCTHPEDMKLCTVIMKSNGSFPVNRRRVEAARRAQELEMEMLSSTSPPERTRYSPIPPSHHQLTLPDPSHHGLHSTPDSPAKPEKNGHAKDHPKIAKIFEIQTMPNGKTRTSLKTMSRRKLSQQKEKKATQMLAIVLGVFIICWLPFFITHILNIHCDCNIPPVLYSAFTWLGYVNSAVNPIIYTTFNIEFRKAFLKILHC
Experiment [12] addresses T1, 5-hydroxytryptamine receptor 3A. The experiment is described as follows: Displacement of [3H]GR65630 from human 5-HT3 receptor expressed in African green monkey COS cells after 90 mins by scintillation counting analysis. The format is cell-based.
The target in experiment [13] is Kappa-type opioid receptor (Homo sapiens, UniProt P41145). The experiment is described as follows: Displacement of [3H]U69593 from kappa opioid receptor (unknown origin) expressed in HEK cells after 90 mins by scintillation counting analysis. The format is cell-based, HEK293.
The target of another experiment is D(1B) dopamine receptor (Homo sapiens, UniProt P21918). In words: Displacement of [3H]SCH23390 from human recombinant dopamine D5 receptor expressed in HEK cells after 90 mins by scintillation counting analysis. The format is cell-based, HEK293.
Chain of D(1B) dopamine receptor (P21918 whole entry): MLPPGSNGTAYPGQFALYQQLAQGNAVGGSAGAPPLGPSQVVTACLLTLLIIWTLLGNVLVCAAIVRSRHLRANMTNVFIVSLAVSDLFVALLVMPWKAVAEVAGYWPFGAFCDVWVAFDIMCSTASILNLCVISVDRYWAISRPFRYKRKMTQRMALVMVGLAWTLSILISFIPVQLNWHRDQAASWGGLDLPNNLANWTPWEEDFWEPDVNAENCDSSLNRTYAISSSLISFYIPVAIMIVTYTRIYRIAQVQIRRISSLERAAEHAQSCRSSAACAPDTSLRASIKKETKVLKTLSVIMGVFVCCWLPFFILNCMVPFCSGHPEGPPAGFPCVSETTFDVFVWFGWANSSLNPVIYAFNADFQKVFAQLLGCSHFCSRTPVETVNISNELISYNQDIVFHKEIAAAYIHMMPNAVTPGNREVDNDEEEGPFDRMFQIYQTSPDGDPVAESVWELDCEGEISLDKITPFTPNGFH
The target of a further experiment is Mu-type opioid receptor (Homo sapiens, UniProt P35372). In words: Displacement of [3H]DAMGO from human recombinant mu opioid receptor expressed in HEK cells after 90 mins by scintillation counting analysis. The format is cell-based, HEK293.
Chain of Mu-type opioid receptor (P35372 whole entry): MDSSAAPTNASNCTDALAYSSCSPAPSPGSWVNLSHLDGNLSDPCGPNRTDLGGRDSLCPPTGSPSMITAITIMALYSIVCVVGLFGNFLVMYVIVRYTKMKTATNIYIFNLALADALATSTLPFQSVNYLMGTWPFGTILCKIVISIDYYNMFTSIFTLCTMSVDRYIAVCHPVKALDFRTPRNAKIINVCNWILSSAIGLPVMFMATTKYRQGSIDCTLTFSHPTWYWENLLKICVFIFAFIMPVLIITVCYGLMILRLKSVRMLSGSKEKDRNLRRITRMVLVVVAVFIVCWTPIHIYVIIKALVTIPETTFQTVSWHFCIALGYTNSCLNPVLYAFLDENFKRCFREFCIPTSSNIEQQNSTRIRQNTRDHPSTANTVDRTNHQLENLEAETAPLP
The target of experiment [14] is Muscarinic acetylcholine receptor M3 (Homo sapiens, UniProt P20309). In words: Binding affinity to human recombinant muscarinic M3 receptor expressed in CHO cells after 90 mins by radioligand displacement assay. The format is cell-based.
Experiment [15] concerns the target Muscarinic acetylcholine receptor M5 (Homo sapiens, UniProt P08912). In words: Binding affinity to human recombinant muscarinic M5 receptor expressed in CHO cells after 90 mins by radioligand displacement assay. The format is cell-based.
Experiment [16] concerns the target Neuronal acetylcholine receptor; alpha3/beta2 (Homo sapiens, UniProt P17787+P32297). The experiment is described as follows: Displacement of [3H]-epibatidine from human alpha3beta2 nAChR transfected in HEK293 cells by scintillation counting analysis. The format is cell-based.
For experiment [17], the target named is 5-hydroxytryptamine receptor 1E (Homo sapiens, UniProt P28566). In words: Displacement of [3H]5-HT from human recombinant 5-HT1E receptor expressed in HEK cells after 90 mins by scintillation counting analysis. The format is cell-based, HEK293.
Chain of 5-hydroxytryptamine receptor 1E (P28566 whole entry): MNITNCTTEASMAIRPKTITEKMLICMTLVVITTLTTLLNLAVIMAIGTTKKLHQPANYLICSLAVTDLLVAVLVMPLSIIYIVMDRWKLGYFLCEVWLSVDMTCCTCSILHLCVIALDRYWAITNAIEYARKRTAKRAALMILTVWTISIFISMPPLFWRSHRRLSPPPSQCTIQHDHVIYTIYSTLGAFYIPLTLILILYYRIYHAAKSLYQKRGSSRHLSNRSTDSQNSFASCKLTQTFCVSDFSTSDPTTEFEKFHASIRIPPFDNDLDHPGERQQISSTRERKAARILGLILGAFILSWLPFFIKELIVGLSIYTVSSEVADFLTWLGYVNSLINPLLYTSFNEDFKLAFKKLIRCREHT
Experiment [18] concerns the target T2, 5-hydroxytryptamine receptor 3A (Mus musculus, UniProt P23979).
T2 sequence (P23979 whole entry): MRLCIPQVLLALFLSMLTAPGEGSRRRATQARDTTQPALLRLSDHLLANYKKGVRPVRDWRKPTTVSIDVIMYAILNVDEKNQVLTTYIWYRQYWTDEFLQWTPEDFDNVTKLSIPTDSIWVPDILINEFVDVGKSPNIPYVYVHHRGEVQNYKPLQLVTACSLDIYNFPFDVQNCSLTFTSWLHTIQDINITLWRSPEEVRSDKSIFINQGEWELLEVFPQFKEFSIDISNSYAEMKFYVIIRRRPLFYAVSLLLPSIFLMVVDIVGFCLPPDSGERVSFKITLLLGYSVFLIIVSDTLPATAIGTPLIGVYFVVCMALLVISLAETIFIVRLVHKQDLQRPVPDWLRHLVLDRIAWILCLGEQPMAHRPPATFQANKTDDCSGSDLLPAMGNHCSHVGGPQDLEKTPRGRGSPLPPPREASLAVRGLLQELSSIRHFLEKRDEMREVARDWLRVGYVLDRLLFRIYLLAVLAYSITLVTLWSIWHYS
The experiment is described as follows: Displacement of [3H]LY278584 from mouse 5-HT3A receptor.

Chain of Translocator protein (P16257 whole entry, looked up): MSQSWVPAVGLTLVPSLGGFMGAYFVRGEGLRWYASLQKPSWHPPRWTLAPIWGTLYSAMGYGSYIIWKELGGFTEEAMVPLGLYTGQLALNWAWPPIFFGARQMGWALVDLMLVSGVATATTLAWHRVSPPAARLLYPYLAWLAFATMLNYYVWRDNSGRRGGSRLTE
Chain of 5-hydroxytryptamine receptor 4 (Q13639 whole entry): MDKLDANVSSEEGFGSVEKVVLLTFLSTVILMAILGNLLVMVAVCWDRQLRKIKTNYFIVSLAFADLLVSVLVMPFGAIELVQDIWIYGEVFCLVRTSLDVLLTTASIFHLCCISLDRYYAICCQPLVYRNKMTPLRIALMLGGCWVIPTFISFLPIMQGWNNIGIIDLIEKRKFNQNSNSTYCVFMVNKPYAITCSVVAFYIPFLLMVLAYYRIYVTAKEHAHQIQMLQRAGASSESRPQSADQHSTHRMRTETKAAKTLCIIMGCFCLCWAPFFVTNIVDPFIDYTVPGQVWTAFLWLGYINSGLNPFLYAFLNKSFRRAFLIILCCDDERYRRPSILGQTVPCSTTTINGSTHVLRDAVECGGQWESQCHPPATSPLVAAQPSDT
Chain of Muscarinic acetylcholine receptor M5 (P08912 whole entry): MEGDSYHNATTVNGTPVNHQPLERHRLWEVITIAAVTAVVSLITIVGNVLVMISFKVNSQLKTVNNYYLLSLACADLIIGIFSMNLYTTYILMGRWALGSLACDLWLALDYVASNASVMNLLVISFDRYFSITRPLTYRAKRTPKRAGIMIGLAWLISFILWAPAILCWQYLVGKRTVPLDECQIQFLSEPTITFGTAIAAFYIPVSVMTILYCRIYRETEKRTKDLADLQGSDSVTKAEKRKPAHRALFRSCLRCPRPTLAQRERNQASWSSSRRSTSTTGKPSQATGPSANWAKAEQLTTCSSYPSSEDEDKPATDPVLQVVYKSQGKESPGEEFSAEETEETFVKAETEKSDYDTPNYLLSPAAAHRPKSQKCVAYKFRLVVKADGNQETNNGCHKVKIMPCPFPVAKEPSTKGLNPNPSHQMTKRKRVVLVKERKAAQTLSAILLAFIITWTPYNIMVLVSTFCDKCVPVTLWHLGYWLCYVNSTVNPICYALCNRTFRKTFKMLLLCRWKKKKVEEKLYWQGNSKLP
Chain of Beta-2 adrenergic receptor (P07550 whole entry): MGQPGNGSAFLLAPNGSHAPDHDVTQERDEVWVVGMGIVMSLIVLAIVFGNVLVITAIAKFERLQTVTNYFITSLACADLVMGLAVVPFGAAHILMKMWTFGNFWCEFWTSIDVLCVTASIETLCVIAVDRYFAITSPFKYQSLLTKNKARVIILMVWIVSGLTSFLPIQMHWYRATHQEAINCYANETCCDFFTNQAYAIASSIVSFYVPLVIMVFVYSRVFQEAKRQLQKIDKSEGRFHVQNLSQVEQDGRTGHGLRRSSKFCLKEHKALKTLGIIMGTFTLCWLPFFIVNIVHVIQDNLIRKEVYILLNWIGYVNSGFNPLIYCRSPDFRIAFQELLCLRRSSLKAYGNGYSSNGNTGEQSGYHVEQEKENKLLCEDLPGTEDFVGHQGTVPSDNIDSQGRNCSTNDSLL

Broadly, the Ki is the dissociation constant of the complex between target and ligand, obtained from inhibition or displacement. Consider `Cl.NC1=Nc2ccc(Cl)cc2CN1`, for which the Ki on Translocator protein was greater than 10 µM; on D(1A) dopamine receptor it was greater than 10 µM; on Histamine H3 receptor it was greater than 10 µM; in experiment [1], greater than 10 µM; in [2] it was 0.466 µM; in [3], 1.16 µM. Further, the Ki in experiment [4] is greater than 10 µM; in experiment [5], greater than 10 µM; in [6] it was greater than 10 µM; in experiment [7] it was greater than 10 µM; in [8] it was greater than 10 µM; in experiment [9] it was 0.644 µM. Moreover, the inhibitory constant (Ki) is greater than 10 µM in experiment [10]; 0.034 µM in experiment [11]; greater than 10 µM on D(2) dopamine receptor; 0.08 µM in experiment [12]; greater than 10 µM in experiment [13]; greater than 10 µM on D(1B) dopamine receptor. The Ki on Mu-type opioid receptor is greater than 10 µM; in [14] it was greater than 10 µM; in [15], greater than 10 µM; in experiment [16], greater than 10 µM; in experiment [17], greater than 10 µM; in [18] it was 0.08 µM.
